Laboratory results reported in patent US20050222146A1, “N-substituted-n-sulfonylaminocyclopropane compounds and pharmaceutical use thereof” (priority 2003, published 2005).

Experiments:
[1] = biological target: T1, aggrecanase-1 (Homo sapiens, UniProt O75173); assay: Aggrecanase-1 inhibitory action, Particle Assay (GAG release from aggrecan-containing polyacrylamide particles); assay type: biochemical; details: 37° C. for 15 hr, read-out: Experimental Example 1 IC50 AG1
T1 sequence (O75173 213-837): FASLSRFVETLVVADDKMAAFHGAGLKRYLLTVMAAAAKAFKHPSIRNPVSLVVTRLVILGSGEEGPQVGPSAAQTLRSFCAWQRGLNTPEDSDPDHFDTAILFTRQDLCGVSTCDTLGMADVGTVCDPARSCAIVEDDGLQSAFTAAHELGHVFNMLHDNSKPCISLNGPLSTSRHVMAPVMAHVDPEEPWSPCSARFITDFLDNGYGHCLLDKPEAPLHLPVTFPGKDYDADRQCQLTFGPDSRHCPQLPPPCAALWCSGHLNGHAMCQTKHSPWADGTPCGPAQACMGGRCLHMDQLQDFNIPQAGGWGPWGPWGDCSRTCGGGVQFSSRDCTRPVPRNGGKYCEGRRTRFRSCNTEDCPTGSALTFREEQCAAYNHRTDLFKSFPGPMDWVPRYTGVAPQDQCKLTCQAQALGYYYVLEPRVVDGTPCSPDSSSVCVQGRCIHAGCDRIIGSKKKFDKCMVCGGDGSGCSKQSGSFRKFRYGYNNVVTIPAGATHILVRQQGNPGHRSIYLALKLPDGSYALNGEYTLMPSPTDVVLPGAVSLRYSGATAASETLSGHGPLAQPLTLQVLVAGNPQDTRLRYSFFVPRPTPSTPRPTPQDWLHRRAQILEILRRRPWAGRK
Method: Aggrecanase-1 Inhibitory Action
Particle Assay was used for determination of aggrecanase activity.
(§1) The enzyme and substrate were diluted with Tris-HCl buffer, and test compounds were diluted with dimethyl sulfoxide (DMSO).
Test compounds and the enzyme were added into 96-well plate, and polyacrylamide particles containing aggrecan were added as a substrate and the mixture was incubated at 37° C. for 15 hr.
After incubation; the supernatant was transferred to another plate, and mixed with 1,9-dimethylmethylene blue. The absorbance at 595 nm was measured to quantify the amount of glycosaminoglycan (GAG) released in the reaction supernatant. Whale chondroitin sulfate was used as the standard of GAG. The inhibitory activity of the compound in each well (%) was calculated based on the values of enzyme-free well and inhibitor-free well. The inhibitory activity of the compound was represented as IC50 (μM).

[2] = biological target: T2, MMP-1 (Homo sapiens, UniProt P03956); assay: MMP-1 inhibitory action, Type I collagen Activity Measurement kit (FITC-labeled collagen type I); assay type: biochemical; details: 37° C. for 3 hr, read-out: Experimental Example 2 IC50 MMP1
T2 sequence (P03956 100-469): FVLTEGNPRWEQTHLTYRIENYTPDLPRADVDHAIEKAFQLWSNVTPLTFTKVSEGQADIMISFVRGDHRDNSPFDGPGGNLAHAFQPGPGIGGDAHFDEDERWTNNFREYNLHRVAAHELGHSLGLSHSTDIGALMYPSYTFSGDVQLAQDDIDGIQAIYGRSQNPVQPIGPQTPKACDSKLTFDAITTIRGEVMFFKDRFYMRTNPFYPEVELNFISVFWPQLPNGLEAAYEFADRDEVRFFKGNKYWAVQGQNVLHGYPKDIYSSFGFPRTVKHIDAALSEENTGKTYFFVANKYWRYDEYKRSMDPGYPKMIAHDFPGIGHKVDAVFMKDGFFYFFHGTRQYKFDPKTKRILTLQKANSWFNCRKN
Method: For MMP-1 Assay, Type I collagen Activity Measurement kit (YAGAI YU-72013) modified to a 96-well plate format was used.
The principle of the kit is based on the property of collagen that becomes soluble in ethanol after being cleaved by MMP-1.
as §1
The enzyme and test compounds were added into 96-well plate, and fluorescein isothiocianate (FITC)-labeled collagen type I was added as a substrate and the mixture was incubated at 37° C. for 3 hr.
The reaction was terminated by addition of Tris-HCl buffer containing ethanol. After centrifugation, the supernatant containing denatured substrate was transferred to another 96-well plate. The collagenase activity of MMP-1 was determined by measuring FITC fluorescence intensity (excitation wavelength 485 nm, emission wavelength 530 nm) of each well. The inhibitory activity of the compound in each well (%) was calculated based on the values of enzyme-free well and inhibitor-free well. The inhibitory activity of the compound was represented as IC50 (μM).

IC50 [1]	IC50 [2]	Structure (SMILES)
< 1 µM	≥ 10 µM	O=C(O)[C@@]1(N(Cc2cc(=O)[nH][nH]2)S(=O)(=O)c2ccc(-c3ccc(Cl)cc3)cc2)C[C@H]1c1ccccc1 (relative stereo) [Example 1-5, (1R*,2S*)-1-[(4′-chloro-biphenyl-4-sulfonyl)-(5-oxo-2,5-dihydro-1H-pyrazol-3-ylmethyl)-amino]-2-phenyl-cyclopropanecarboxylic acid]
< 1 µM	≥ 10 µM	CS(=O)(=O)NCCN([C@]1(C(=O)O)C[C@H]1c1ccccc1)S(=O)(=O)c1ccc(-c2ccc(Cl)cc2)cc1 (relative stereo) [Example 1-7, (1R*,2S*)-1-[(4′-chloro-biphenyl-4-sulfonyl)-(2-methanesulfonylamino-ethyl)-amino]-2-phenyl-cyclopropanecarboxylic acid]
< 1 µM	≥ 10 µM	CC(C)OC(=O)NS(=O)(=O)NCCN([C@]1(C(=O)O)C[C@H]1c1ccccc1)S(=O)(=O)c1ccc(-c2ccc(Cl)cc2)cc1 (relative stereo) [Example 1-9, (1R*, 2S*)-1-[(4′-chloro-biphenyl-4-sulfonyl)-(2-isopropoxycarbonylaminosulfonylamino-ethyl)-amino]-2-phenyl-cyclopropanecarboxylic acid]
< 0.1 µM	≥ 10 µM	O=C(O)c1ccc(CN([C@]2(C(=O)O)C[C@H]2c2ccccc2)S(=O)(=O)c2ccc(-c3ccc(Cl)cc3)cc2)cc1 (relative stereo) [Example 1-10, (1R*,2S*)-4-{[(1-carboxy-2-phenyl-cyclopropyl)-(4′-chloro-biphenyl-4-sulfonyl)-amino]-methyl}-benzoic acid]
< 1 µM	≥ 10 µM	O=C(O)CN([C@]1(C(=O)O)C[C@H]1c1ccc(Cl)cc1)S(=O)(=O)c1ccc(-c2ccc(Cl)cc2)cc1 (relative stereo) [Example 1-11, (1R*,2S*)-1-[carboxymethyl-(4′-chloro-biphenyl-4-sulfonyl)-amino]-2-(4-chloro-phenyl)-cyclopropanecarboxylic acid]
< 1 µM	≥ 10 µM	O=C(O)CN([C@]1(C(=O)O)C[C@H]1c1cccc(Cl)c1)S(=O)(=O)c1ccc(-c2ccc(Cl)cc2)cc1 (relative stereo) [Example 1-12, (1R*,2S*)-1-[carboxymethyl-(4′-chloro-biphenyl-4-sulfonyl)-amino]-2-(3-chloro-phenyl)-cyclopropanecarboxylic acid]
< 1 µM	≥ 10 µM	O=C(O)CN([C@]1(C(=O)O)C[C@H]1c1ccccc1Cl)S(=O)(=O)c1ccc(-c2ccc(Cl)cc2)cc1 (relative stereo) [Example 1-13, (1R*,2S*)-1-[carboxymethyl-(4′-chloro-biphenyl-4-sulfonyl)-amino]-2-(2-chloro-phenyl)-cyclopropanecarboxylic acid]
< 1 µM	≥ 10 µM	O=C(O)[C@@]1(N(Cc2nn[nH]n2)S(=O)(=O)c2ccc(-c3ccc(Cl)cc3)cc2)C[C@H]1c1ccccc1 (relative stereo) [Example 1-15, (1R*,2S*)-1-[(4′-chloro-biphenyl-4-sulfonyl)-(2H-tetrazol-5-ylmethyl)-amino]-2-phenyl-cyclopropanecarboxylic acid]
< 1 µM	≥ 10 µM	O=C(O)[C@@]1(N(Cc2cccc(O)c2)S(=O)(=O)c2ccc(-c3ccc(Cl)cc3)cc2)C[C@H]1c1ccccc1 (relative stereo) [Example 1-17, (1R*,2S*)-1-[(4′-chloro-biphenyl-4-sulfonyl)-(3-hydroxy-benzyl)-amino]-2-phenyl-cyclopropanecarboxylic acid]
< 1 µM	≥ 10 µM	Cc1ccc([C@@H]2C[C@@]2(C(=O)O)N(CC(=O)O)S(=O)(=O)c2ccc(-c3ccc(Cl)cc3)cc2)cc1 (relative stereo) [Example 1-18, (1R*,2S*)-1-[carboxymethyl-(4′-chloro-biphenyl-4-sulfonyl)-amino]-2-(4-methyl-phenyl)-cyclopropanecarboxylic acid]
< 1 µM	≥ 10 µM	Cc1ccccc1[C@@H]1C[C@@]1(C(=O)O)N(CC(=O)O)S(=O)(=O)c1ccc(-c2ccc(Cl)cc2)cc1 (relative stereo) [Example 1-19, (1R*,2S*)-1-[carboxymethyl-(4′-chloro-biphenyl-4-sulfonyl)-amino]-2-(2-methyl-phenyl)-cyclopropanecarboxylic acid]
< 1 µM	≥ 10 µM	Cc1cccc([C@@H]2C[C@@]2(C(=O)O)N(CC(=O)O)S(=O)(=O)c2ccc(-c3ccc(Cl)cc3)cc2)c1 (relative stereo) [Example 1-20, (1R*,2S*)-1-[carboxymethyl-(4′-chloro-biphenyl-4-sulfonyl)-amino]-2-(3-methyl-phenyl)-cyclopropanecarboxylic acid]
< 1 µM	≥ 10 µM	COc1ccccc1[C@@H]1C[C@@]1(C(=O)O)N(CC(=O)O)S(=O)(=O)c1ccc(-c2ccc(Cl)cc2)cc1 (relative stereo) [Example 1-22, (1R*,2S*)-1-[carboxymethyl-(4′-chloro-biphenyl-4-sulfonyl)-amino]-2-(2-methoxy-phenyl)-cyclopropanecarboxylic acid]
< 1 µM	≥ 10 µM	O=C(O)CN([C@]1(C(=O)O)C[C@H]1c1ccc(Cl)c(Cl)c1)S(=O)(=O)c1ccc(-c2ccc(Cl)cc2)cc1 (relative stereo) [Example 1-23, (1R*,2S*)-1-[carboxymethyl-(4′-chloro-biphenyl-4-sulfonyl)-amino]-2-(3,4-dichloro-phenyl)-cyclopropanecarboxylic acid]
< 1 µM	≥ 10 µM	O=C(O)CN([C@]1(C(=O)O)C[C@H]1c1cc(Cl)ccc1Cl)S(=O)(=O)c1ccc(-c2ccc(Cl)cc2)cc1 (relative stereo) [Example 1-24, (1R*,2S*)-1-[carboxymethyl-(4′-chloro-biphenyl-4-sulfonyl)-amino]-2-(2,5-dichloro-phenyl)-cyclopropanecarboxylic acid]
< 0.1 µM	≥ 10 µM	O=C(O)CN([C@]1(C(=O)O)C[C@H]1c1cccc(Oc2ccccc2)c1)S(=O)(=O)c1ccc(-c2ccc(Cl)cc2)cc1 (relative stereo) [Example 1-25, (1R*,2S*)-1-[carboxymethyl-(4′-chloro-biphenyl-4-sulfonyl)-amino]-2-(3-phenoxy-phenyl)-cyclopropanecarboxylic acid]
< 1 µM	≥ 10 µM	O=C(O)CN([C@]1(C(=O)O)C[C@H]1c1ccccc1-c1ccccc1)S(=O)(=O)c1ccc(-c2ccc(Cl)cc2)cc1 (relative stereo) [Example 1-26, (1R*,2S*)-2-biphenyl-2-yl-1-[carboxymethyl-(4′-chloro-biphenyl-4-sulfonyl)-amino]-cyclopropanecarboxylic acid]
< 0.1 µM	≥ 10 µM	N#Cc1cccc([C@@H]2C[C@@]2(C(=O)O)N(CC(=O)O)S(=O)(=O)c2ccc(-c3ccc(Cl)cc3)cc2)c1 (relative stereo) [Example 1-27, (1R*,2S*)-1-[carboxymethyl-(4′-chloro-biphenyl-4-sulfonyl)-amino]-2-(3-cyano-phenyl)-cyclopropanecarboxylic acid]

Structure (SMILES)	IC50 [1]	IC50 [2]
CC(C)(C)OC(=O)NCCN([C@]1(C(=O)O)C[C@H]1c1ccccc1)S(=O)(=O)c1ccc(-c2ccc(Cl)cc2)cc1 (relative stereo) [Example 1-4, (1R*,2S*)-1-[(2-tert-butoxycarbonylamino-ethyl)-(4′-chloro-biphenyl-4-sulfonyl)-amino]-2-phenyl-cyclopropanecarboxylic acid]	< 1 µM	≥ 10 µM
